Like-named read-outs stand apart in the source and are kept apart here.
Assays:
ESBL E. coli = assay: microbe, parasite or virus in culture; format: cell-based, Escherichia coli; conditions: for IC50: ESBL E. coli
Source text: (§1) Bacterial culture reagents including LB broth (Lennox), agar-agar, ampicillin, and ceftriaxone were purchased from Sigma Aldrich Corp. The Escherichia coli (E. coli) K12 strain HB101 and pGLO E. coli transformation kit purchased from Bio-Rad Laboratories Inc. HB101 was transformed with the bla gene via the pGLO plasmid. The bla gene encodes for a TEM-1 β-lactamase that imparts penicillin resistance to the mutant E. coli K-12 strain (+Bla). Strains E. coli UTI89, [27] pCOM-GFP-transformed E. coli UTI89 (pCOM-GFP), [28] and Methicillin-Resistant Staphylococcus aureus (MRSA) clone USA300 [29] have been previously described. The Extended-Spectrum β-Lactamase (ESBL) E. coli, Klebsiella pneumonia (Klebs), and Pseudomonas aeruginosa (Pseudo) strains were clinical isolates acquired deidentified from Duke Hospital and tested for antibiotic susceptibility in the Clinical Microbiology Laboratory using standard clinical susceptibility methods.
(§2) Cultures were incubated on LB (Lennox, Sigma) agar at 37° C. in ambient atmospheric composition. Before beginning an experiment, a single bacterial colony grown on LB agar was resuspended in 2 mL LB broth and incubated overnight to form a turbid cell suspension. The overnight culture was diluted 1:100 in LB and used immediately as the working culture. To assess the antibacterial activity of compounds, the working bacterial culture was aliquoted in a clear, flat-bottomed, 96-well polystyrene plate (Costar) and the compound of interest was added in 2-fold serial dilution from 500 to 1 μM. Plates were covered with a breathable sealing film (Aeroseal, Genesee Scientific) and incubated at 37° C. in ambient atmospheric composition with shaking at 200 rpm. Optical density at 600 nm was recorded after 4 h and 20 h for each well using a standard OD600 protocol with LB serving as the blank. The resulting dose-response curves were fit to a nonlinear regression in GraphPad Prism Version 6 to calculate the IC50 of DB4-51 in each strain.
(§3) The ability of DB4-162 to inhibit bacterial growth was assessed by a traditional broth microdilution method that assesses the turbidity of liquid cultures in the presence of varying concentrations of the compound. As described above for DB4-51, the antibacterial properties of the prochelator DB4-162 were assessed in non-pathogenic lab-strain HB101K-12 E. coli and compared to the pGLO-transfected mutant HB101K-12 E. coli that express β-lactamase. Clinically relevant pathogenic bacteria were also screened, including UTI89 E. coli, pCOM transfected UTI89 E. coli (pCOM), extended spectrum β-lactamase (ESBL) E. coli, methicillin-resistant Staphylococcus aureus (MRSA), and Klebsiella pneumonia (Klebs). In addition to being naturally resistant to many β-lactam antibiotics, MRSA can produce a number of β-lactamases. […] It should be noted that all of the bacteria tested are gram-negative except for gram-positive MRSA.
(§4) The goal of this screen was to calculate the IC50 of the prochelator in a series of pathogenic bacteria and compare these values to the IC50 of known antibiotics in those same strains to determine the relative effectiveness of DB4-162 against the drug-resistant and drug-susceptible bacteria in comparison to current antibiotic treatment options. Bacterial growth was monitored in LB broth at 37° C. in the presence and absence of DB4-162 for 20 hours. A concentration gradient of DB4-162 from 500 to 0 μM was used to screen all 7 strains of bacteria and the dose-response curves were fit to a […] to calculate the IC50 of DB4-162 in each strain. These IC50 values are an approximation of how effectively DB4-162 inhibits the growth of each bacterial strain in vitro.
(§5) IC50 values for ampicillin were calculated via broth microdilution in LB broth only. Values are listed as the mean followed by the 95% confidence interval about the mean. Mean and confidence intervals were calculated from a variable slope, nonlinear regression fit to the dose-response OD600 data. […]

+Bla K-12 E. coli = assay: microbe, parasite or virus in culture; format: cell-based, Escherichia coli
Source text: as §1, §2, §3, §4, §5

pCOM E. coli = assay: microbe, parasite or virus in culture; format: cell-based, Escherichia coli; conditions: for IC50: Escherichia coli, pCOM E. coli
Source text: as §1, §2, §3, §4, §5

−Bla K-12 E. coli = assay: microbe, parasite or virus in culture; format: cell-based, Escherichia coli; conditions: −Bla K-12 E. coli
Source text: as §1, §2, §3, §4, §5

UTI89 E. coli = assay: Broth microdilution growth inhibition (OD600); format: cell-based, Escherichia coli; conditions: UTI89 E. coli
Source text: as §1, §2, §3, §4, §5

[1] = Calcein fluorescence assay for Cu competition; format: physicochemical
Description: FIG. 11: To solutions of 2 μM calcein in pH 7.4 PBS was added 2.4 μM CuCl2 and the samples were fully equilibrated at room temperature for 2 hours. Next, 20 μM TAT, 20 μM DB4-162, 0.1 units/mL β-lactamase were added and the fluorescence at 500 nm was recorded after one hour.
A calcein fluorescence assay for metal competition was utilized in order to evaluate the relative metal-binding affinity of DB4-51 compared to PT. The fluorescence intensity of the probe calcein is quenched by more than 90% upon binding Cu^2+. […] However, when incubated with 10 equivalents of DB4-51 and 0.1 units/mL Type III β-lactamase from Enterobacter cloacae, there is an 85% return in calcein fluorescence, which correlates well with the 90% return observed for PT itself at the same concentration.
FIG. 4: Relative Cu binding assay with DB4-51 and PT against calcein. Solutions of 2 μM calcein and 2.4 μM CuCl2 in pH 7.4 PBS were equilibrated at room temperature for 2 hours prior to addition of 20 μM PT, 20 μM DB4-51, and/or 0.1 units/mL β-lactamase (Bla).
The calcein assay was utilized in order to assess the relative copper chelating ability of the prochelator and TAT. The fluorescence emission of calcein is quenched by more than 90% in the presence of 1.2 equivalents of CuCl2 (FIG. 11). […] The addition of 0.1 units/mL β-lactamase alone has no effect on the quenched fluorescence signal of the Cu-calcein solution. […] However, when incubated with 10 equivalents of DB4-162 and 0.1 units/mL β-lactamase there is a 90% return in calcein fluorescence. […] While it is unclear why 10 equivalents of TAT are insufficient to out-compete calcein for copper, it may be related to the propensity of TAT to form other species in aqueous media.

[2] = test system: Methicillin-Resistant Staphylococcus aureus (MRSA); assay: microbe, parasite or virus in culture; format: cell-based
Source text: as §1, §2, §3, §4, §5

[3] = Escherichia coli, LB + 500 μM BCS
[4] = Escherichia coli, +Bla K-12 E. coli, LB + 500 μM BCS
[5] = Escherichia coli, LB + 10 μM CuCl2, read-out: IC50
[6] = Escherichia coli, LB + 500 μM BCS, read-out: IC50
[7] = Escherichia coli, LB + 10 μM CuCl2
[8] = 2 μM calcein + 2.4 μM CuCl2, pH 7.4 PBS, 20 μM (10 equivalents) compound alone, 1 h
[9] = as above, 10 equivalents compound + 0.1 units/mL β-lactamase
[10] = Escherichia coli, +Bla K-12 E. coli, LB broth
[11] = Staphylococcus aureus, LB + 500 μM BCS
[12] = Escherichia coli, +Bla K-12 E. coli, LB + 10 μM CuCl2

Row | SMILES | IC50 (ESBL E. coli; [3]) [nM] | IC50 (+Bla K-12 E. coli; [4]) [nM] | IC50 (−Bla K-12 E. coli; [5]) [nM] | IC50 (−Bla K-12 E. coli; [6]) [nM] | IC50 (UTI89 E. coli; [7]) [nM] | IC50 (UTI89 E. coli; [3]) [nM] | return in calcein fluorescence [1, 8] | return in calcein fluorescence [1, 9] [%] | IC50 (ESBL E. coli; Escherichia coli, LB broth) [nM] | IC50 (+Bla K-12 E. coli; [10]) [nM] | IC50 (pCOM E. coli; LB + 10 μM CuCl2) [nM] | IC50 (pCOM E. coli; LB + 500 μM BCS) [nM] | IC50 (pCOM E. coli; LB broth) [nM] | IC50 (UTI89 E. coli; Escherichia coli, LB broth) [nM] | IC50 [2, 11] [nM] | IC50 (+Bla K-12 E. coli; [12]) [nM] | other results
1 | O=C(Cc1ccccc1)N[C@@H]1C(=O)N2C(C(=O)O)=C(CSc3cccc[n+]3[O-])CS[C@H]12 [DB4-51, 2-((((6R,7R)-2-carboxy-8-oxo-7-(2-phenylacetamido)-5-thia-1-azabicyclo[4.2.0]oct-2-en-3-yl)methyl)thio)pyridine 1-oxide] | 17 | 51 | 15 | 38 | 21 | 17 | does not compete with calcein for Cu binding | 85 |  |  |  |  |  |  |  |  | change in IC50 value depending on Cu status (+Bla K-12 E. coli; +Bla K-12 E. coli, Cu replete vs Cu depleted): less than 4 fold; IC50 (+Bla K-12 E. coli; Escherichia coli, read-out: IC50 after pre-incubation with β-lactamase, +Bla K-12 E. coli, pre-incubated with β-lactamase): 8000 nM; change in IC50 value depending on Cu status (pCOM E. coli; pCOM-GFP UTI89 E. coli, Cu replete vs Cu depleted): 10 fold; IC50 (−Bla K-12 E. coli; Escherichia coli, pre-incubated with β-lactamase, read-out: IC50 after pre-incubation with β-lactamase): 9000 nM; change in IC50 value as a function of Cu availability ([2]; Cu-replete vs Cu-limited): 55 fold
2 | [O-][n+]1ccccc1S [PT, 2-mercaptopyridine N-oxide] |  | 19 |  |  | 4 | 6 | 90% |  | 5 | 6 | 4 | 7 | 2 | 2 | 11 |  | 
3 | Cc1csc(=S)n1OCC1=C(C(=O)O)N2C(=O)[C@@H](NC(=O)Cc3ccccc3)[C@H]2SC1 [DB4-162, (6R,7R)-3-(((4-methyl-2-thioxothiazol-3(2H)-yl)oxy)methyl)-8-oxo-7-(2-phenylacetamido)-5-thia-1-azabicyclo[4.2.0]oct-2-ene-2-carboxylic acid] | 50000 | 179000 | 39000 | 54000 | 97000 | 77000 | approximately 50% | 90 | 22000 | 143000 | 93000 | 168000 | 112000 | 93000 | 2400 | 147000 | IC50 (ESBL E. coli; [7]): 21000 nM; IC50 in ESBL E. coli lower than in −Bla K-12 E. coli (ESBL E. coli; LB broth): 90%; IC50 (−Bla K-12 E. coli; Escherichia coli, LB broth, read-out: IC50): 227000 nM; IC50 ([2]; Staphylococcus aureus, LB + 10 μM CuCl2): 2700 nM; IC50 ([2]; Staphylococcus aureus, LB broth): 2400 nM
4 | CC1(C)S[C@@H]2[C@H](NC(=O)[C@H](N)c3ccccc3)C(=O)N2[C@H]1C(=O)O [Ampicillin] |  | > 250000 |  |  |  |  |  |  |  |  |  |  |  |  |  | > 250000 | IC50 (ESBL E. coli; LB broth): > 250000 nM; IC50 (+Bla K-12 E. coli; +Bla K-12 E. coli, LB broth): > 250000 nM; IC50 (−Bla K-12 E. coli; LB broth, listed as ampicillin, read-out: IC50): 8000 nM; IC50 (−Bla K-12 E. coli; LB broth, read-out: IC50): 8 nM; IC50 (UTI89 E. coli; LB broth): 3 nM; IC50 (UTI89 E. coli; LB broth, listed as ampicillin): 3000 nM; IC50 ([2]; LB broth): > 250000 nM

— patent publication US10533018B2, “Antimicrobial prochelators to target drug-resistant bacteria and methods of making and using the same” (Duke University, priority 2015, dated 2020)
